Laboratory results: patent US20080085893A1, “MATRIX METALLOPROTEASE INHIBITORS” (priority 2006, published 2008)
pIC50: −log10 of the molar value. “And” between values parts separate entries of the source, which are not always exact repeats. Identical values can stand only once. Like-named read-outs stand apart in the source and are kept apart here.

Assays:
Type in all cases: biochemical
[1] = target: T1, human MMP-2 (amino acids 1-660) (Homo sapiens, UniProt P08253); assay: MMP dose response assay for determining IC50, MMP-2; details: recombinant enzyme, fluorescent-quench substrate 100 nM; read-out: MMP-2
T1 construct: human MMP-2 (amino acids 1-660); made in house
T1 sequence (P08253 110-660): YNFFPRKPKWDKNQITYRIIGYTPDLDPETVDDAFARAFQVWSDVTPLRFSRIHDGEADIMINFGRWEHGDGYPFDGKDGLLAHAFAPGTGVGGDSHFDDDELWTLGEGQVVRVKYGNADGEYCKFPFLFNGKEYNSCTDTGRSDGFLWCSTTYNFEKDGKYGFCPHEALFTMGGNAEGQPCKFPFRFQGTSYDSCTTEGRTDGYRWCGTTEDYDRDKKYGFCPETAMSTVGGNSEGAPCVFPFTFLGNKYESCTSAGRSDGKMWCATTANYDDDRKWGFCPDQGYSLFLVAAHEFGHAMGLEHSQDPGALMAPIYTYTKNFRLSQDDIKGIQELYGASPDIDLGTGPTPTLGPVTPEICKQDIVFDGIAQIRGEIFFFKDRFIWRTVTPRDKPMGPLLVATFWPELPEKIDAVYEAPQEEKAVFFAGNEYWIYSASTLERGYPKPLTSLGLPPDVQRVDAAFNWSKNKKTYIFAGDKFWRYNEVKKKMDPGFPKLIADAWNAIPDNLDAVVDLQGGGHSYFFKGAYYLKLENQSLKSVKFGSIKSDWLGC
Protocol: (§1) MMP Dose Response Assay for Determining IC50
(§2) The following method was used for determining IC50 values of different inhibitor compounds against multiple MMP enzymes. Frozen stocks of recombinantly produced MMPs were prepared in assay buffer (50 mM HEPES pH 7.4, 10 mM CaCl2, 0.05% Brij-35). […] Enzyme concentrations in the assay were determined empirically and set such that proteolytic activity was maintained in a linear range over the time-course of the experiment. […] Each concentration for each test compound was tested in triplicate. MMP enzymes were equilibrated with compounds for 1 hour at room temperature, then a fluorescent-quench substrate (Acetyl-Cys(Eu)-Pro-Leu-Gly-Leu-Lys-(QSY7)-Ala-Arg-amide) was added to a final concentration of 100 nM. […] Data was analyzed by first calculating average background value from wells that contained only substrate, and this value was subtracted from the entire plate. The 100%, or maximum value, was determined by averaging control wells that contained enzyme, substrate and DMSO. For each well, the percent of control was calculated by dividing the well value by the average DMSO value obtained above.

[2] = target: T2, human MMP-9 (amino acids 107-446) (Homo sapiens, UniProt P14780); assay: MMP dose response assay for determining IC50, MMP-9; details: for pIC50: recombinant enzyme, fluorescent-quench substrate 100 nM, read-out: MMP-9
T2 construct: human MMP-9 (amino acids 107-446); made in house
T2 sequence (P14780 107-446): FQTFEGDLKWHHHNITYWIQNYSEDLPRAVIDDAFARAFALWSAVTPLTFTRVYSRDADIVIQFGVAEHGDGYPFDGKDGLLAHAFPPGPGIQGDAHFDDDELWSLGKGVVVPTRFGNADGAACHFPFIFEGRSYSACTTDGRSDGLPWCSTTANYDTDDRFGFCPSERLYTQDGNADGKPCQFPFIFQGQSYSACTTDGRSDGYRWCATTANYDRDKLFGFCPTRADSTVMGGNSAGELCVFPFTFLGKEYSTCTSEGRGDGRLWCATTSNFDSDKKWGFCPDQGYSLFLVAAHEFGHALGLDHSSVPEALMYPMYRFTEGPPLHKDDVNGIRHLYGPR
Protocol: as §1, §2

[3] = target: T3, human MMP-1 (amino acids 100-262) (Homo sapiens, UniProt P03956); assay: MMP dose response assay for determining IC50, MMP-1; details: recombinant catalytic domain, fluorescent-quench substrate 100 nM
T3 construct: human MMP-1 (amino acids 100-262); made in house
T3 sequence (P03956 100-262): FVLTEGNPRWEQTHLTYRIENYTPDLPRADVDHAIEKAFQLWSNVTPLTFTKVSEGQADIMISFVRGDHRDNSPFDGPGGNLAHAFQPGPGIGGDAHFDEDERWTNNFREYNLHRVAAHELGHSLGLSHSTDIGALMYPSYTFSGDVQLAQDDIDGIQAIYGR
Protocol: as §1, §2

## CS(=O)(=O)N(C[C@@H](O)C(=O)NO)c1ccc(Oc2ccc(Cl)cc2)cc1 [Example 13, N-Hydroxy (2R)-2-hydroxy-3-{N-[4-(4-chlorophenoxy)phenyl],N-methanesulfonylamino}propionamide]
[1]
  pIC50: 7.62 and 7.35
[2]
  pIC50: 8.25 and 8.15
[3]
  pIC50: 5.01 and 5.27

## Cc1ccc(Oc2ccc(N(C[C@H](O)C(=O)NO)S(=O)(=O)Cc3ccccc3)cc2)cc1 [Example 14, N-Hydroxy (2S)-2-hydroxy-3-{N-[4-(4-methylphenoxy)phenyl],N-phenylmethylsulfonylamino}propionamide]
[1]
  pIC50: 6.24
[2]
  pIC50: 7.03
[3]
  pIC50: < 5.00

## CCCS(=O)(=O)N(C[C@H](O)C(=O)NO)c1ccc(Oc2ccc(C)cc2)cc1 [Example 15, N-Hydroxy (2S)-2-hydroxy-3-{N-[4-(4-methylphenoxy)phenyl],N-(1-propyl)sulfonylamino}propionamide]
[1]
  pIC50: 6.29
[2]
  pIC50: 6.91
[3]
  pIC50: < 5.00

## CO[C@H](CN(c1ccc(Oc2ccc(C)cc2)cc1)S(C)(=O)=O)C(=O)NO [Example 17, N-Hydroxy (2R)-2-methoxy-3-{N-[4-(4-methylphenoxy)phenyl],N-methanesulfonylamino}propionamide]
[1]
  pIC50: 6.99
[2]; MMP-9 (nM)
  IC50: 12.7 nM
[3]
  pIC50: < 5.00

## Cc1ccc(Oc2ccc(N(C[C@H](NC(C)C)C(=O)NO)S(C)(=O)=O)cc2)cc1 [Example 18, N-Hydroxy (2S)-3-{N-[4-(4-methylphenoxy)phenyl],N-methanesulfonylamino}-2-[(2-propyl)amino]propionamide]
[1]
  pIC50: 8.44 and 8.60 and 8.49 and 8.29 and 8.26 and 8.38
[2]
  pIC50: 9.21 and 9.12 and 9.52 and 9.39 and 9.35
[3]
  pIC50: < 5.00 and 5.02 and 5.38 and 5.08 and 5.16

## CCS(=O)(=O)N(C[C@H](O)C(=O)NO)c1ccc(Oc2ccc(C)cc2)cc1 [Example 20, N-Hydroxy (2S)-2-hydroxy-3-{N-[4-(4-methylphenoxy)phenyl],N-ethylsulfonylamino}propionamide]
[1]
  pIC50: 6.94 and 6.77
[2]
  pIC50: 7.67 and 7.47
[3]
  pIC50: < 5.00

## Cc1ccc(Oc2ccc(N(C[C@@H](OCc3ccccc3)C(=O)NO)S(C)(=O)=O)cc2)cc1 [Example 22, N-Hydroxy (2R)-2-benzyloxy-3-{N-[4-(4-methylphenoxy)phenyl],N-methanesulfonylamino}propionamide]
[1]
  pIC50: 6.68 and 6.47
[2]
  pIC50: 7.97 and 7.38
[3]
  pIC50: < 5.00

## Cc1ccc(Oc2ccc(N(C[C@H](OCc3ccccc3)C(=O)NO)S(C)(=O)=O)cc2)cc1 [Example 23, N-Hydroxy (2S)-2-benzyloxy-3-{N-[4-(4-methylphenoxy)phenyl],N-methanesulfonylamino}propionamide]
[1]
  pIC50: 7.25 and 7.04
[2]
  pIC50: 8.59 and 8.04
[3]
  pIC50: < 5.00

## Cc1ccc(Oc2ccc(N(C[C@@H](NC(C)C)C(=O)NO)S(C)(=O)=O)cc2)cc1 [Example 24, N-Hydroxy (2R)-3-{N-[4-(4-methylphenoxy)phenyl],N-methanesulfonylamino}-2-(2-propyl)aminopropionamide]
[1]
  pIC50: 6.73 and 6.77
[2]
  pIC50: 7.42 and 7.60
[3]
  pIC50: < 5.00

## Cc1ccc(Oc2ccc(N(C[C@H](NCc3ccccc3)C(=O)NO)S(C)(=O)=O)cc2)cc1 [Example 25, N-Hydroxy (2S)-2-benzylamino-3-{N-[4-(4-methylphenoxy)phenyl],N-methanesulfonylamino}propionamide]
[1]
  pIC50: 6.70
[2]
  pIC50: 8.15
[3]
  pIC50: < 5.00

## Cc1ccc(Oc2ccc(N(C[C@@H](NCc3ccccc3)C(=O)NO)S(C)(=O)=O)cc2)cc1 [Example 26, N-Hydroxy (2R)-2-benzylamino-3-{N-[4-(4-methylphenoxy)phenyl],N-methanesulfonylamino}propionamide]
[1]
  pIC50: 7.26
[2]
  pIC50: 7.03
[3]
  pIC50: < 5.00

## Cc1ccc(Oc2ccc(N(C[C@H](C(=O)NO)N3CCOCC3)S(C)(=O)=O)cc2)cc1 [Example 28, N-Hydroxy (2R)-3-{N-[4-(4-methylphenoxy)phenyl],N-methanesulfonylamino}-2-(morpholin-4-yl)propionamide]
[1]
  pIC50: 5.88
[2]
  pIC50: 6.53
[3]
  pIC50: < 5.00

## Cc1ccc(Oc2ccc(N(C[C@H](N)C(=O)NO)S(C)(=O)=O)cc2)cc1 [Example 29, N-Hydroxy (2S)-2-amino-3-{N-[4-(4-methylphenoxy)phenyl],N-methanesulfonylamino}propionamide]
[1]
  pIC50: 6.17
[2]
  pIC50: 6.92
[3]
  pIC50: < 5.00

## Cc1ccc(Oc2ccc(N(C[C@H](O)C(=O)NO)S(=O)(=O)Cc3ccncc3)cc2)cc1 [Example 31, N-Hydroxy (2S)-2-hydroxy-3-{N-[4-(4-methylphenoxy)phenyl],N-(pryidin-4-yl)methylsulfonylamino}propionamide]
[1]
  pIC50: 6.46
[2]
  pIC50: 7.27
[3]
  pIC50: < 5.00

## Cc1ccc(Oc2ccc(N(C[C@H](O)C(=O)NO)S(=O)(=O)Cc3cccnc3)cc2)cc1 [Example 32, N-Hydroxy (2S)-2-hydroxy-3-{N-[4-(4-methylphenoxy)phenyl],N-(pryidin-3-yl)methylsulfonylamino}propionamide]
[1]
  pIC50: 6.40
[2]
  pIC50: 7.16
[3]
  pIC50: < 5.00

## Cc1ccc(Oc2ccc(N(C[C@H](NCc3ccncc3)C(=O)NO)S(C)(=O)=O)cc2)cc1 [Example 33, N-Hydroxy (2S)-3-{N-[4-(4-methylphenoxy)phenyl],N-methanesulfonylamino}-2-(pyridine-4-yl)methylaminopropionamide]
[1]
  pIC50: 8.02
[2]
  pIC50: 8.75
[3]
  pIC50: < 5.00

## Cc1ccc(Oc2ccc(N(C[C@H](NCc3ccccn3)C(=O)NO)S(C)(=O)=O)cc2)cc1 [Example 34, N-Hydroxy (2S)-3-{N-[4-(4-methylphenoxy)phenyl],N-methanesulfonylamino}-2-(pyridin2-yl)methylaminopropionamide]
[1]
  pIC50: 7.08
[2]
  pIC50: 7.64
[3]
  pIC50: < 5.00

## Cc1ccc(Oc2ccc(N(C[C@H](NCc3cccnc3)C(=O)NO)S(C)(=O)=O)cc2)cc1 [Example 35, N-Hydroxy (2S)-3-{N-[4-(4-methylphenoxy)phenyl],N-methanesulfonylamino}-2-(pyridine-3-yl)methylaminopropionamide]
[1]
  pIC50: 7.77
[2]
  pIC50: 8.55
[3]
  pIC50: < 5.00

## Cc1ccc(Oc2ccc(N(C[C@H](NCC(C)C)C(=O)NO)S(C)(=O)=O)cc2)cc1 [Example 36, N-Hydroxy (2S)-3-{N-[4-(4-methylphenoxy)phenyl],N-methanesulfonylamino}-2-(2-methylpropyl)aminopropionamide]
[1]
  pIC50: 7.94
[2]
  pIC50: 8.90
[3]
  pIC50: 5.04

## Cc1ccc(Oc2ccc(N(C[C@H](NC3CCCC3)C(=O)NO)S(C)(=O)=O)cc2)cc1 [Example 37, N-Hydroxy (2S)-2-cyclopentylamino-3-{N-[4-(4-methylphenoxy)phenyl],N-methanesulfonylamino}propionamide]
[1]
  pIC50: 8.00
[2]
  pIC50: 8.77
[3]
  pIC50: < 5.00

## Cc1ccc(Oc2ccc(N(C[C@H](Nc3ccc(F)cc3)C(=O)NO)S(C)(=O)=O)cc2)cc1 [Example 38, N-Hydroxy (2S)-2-(4-fluorophenyl)amino-3-{N-[4-(4-methylphenoxy)phenyl],N-methanesulfonylamino}propionamide]
[1]
  pIC50: 7.19
[2]
  pIC50: 8.88
[3]
  pIC50: < 5.00

## Cc1ccc(Oc2ccc(N(C[C@H](Nc3cccc(F)c3)C(=O)NO)S(C)(=O)=O)cc2)cc1 [Example 39, N-Hydroxy (2S)-2-(3-fluorophenyl)amino-3-{N-[4-(4-methylphenoxy)phenyl],N-methanesulfonylamino}propionamide]
[1]
  pIC50: 7.46 and 7.30 and 7.14 and 7.28
[2]
  pIC50: 9.34 and 8.93 and 8.77 and 9.60
[3]
  pIC50: < 5.00

## Cc1ccc(Oc2ccc(N(C[C@H](Nc3ccc4[nH]ccc4c3)C(=O)NO)S(C)(=O)=O)cc2)cc1 [Example 40, N-Hydroxy (2S)-2-(indol-5-yl)amino-3-{N-[4-(4-methylphenoxy)phenyl],N-methanesulfonylamino}propionamide]
[1]
  pIC50: 7.51 and 7.83
[2]
  pIC50: 9.00 and 9.19
[3]
  pIC50: 5.19 and 5.05
